In publication PMC11558128 (Advanced Science, 2024):
Positions of bridges follow the written chain, without caps; N, C: chain ends. Residues, ends and D or L forms follow the SMILES beside them.

Experiments:
[1] = tested on: ICR mice; assay: Rotarod test; assay type: in vivo, mouse; details: 2 mg kg-1 i.p.; vs saline; n = 5-6, p > 0.9999
Method: In Vivo Safety Evaluation: Rotarod Test: ICR mice (weight 18–20 g, 6–8 weeks, both sex) were trained on a rotarod at a constant speed of 20 rpm for 8 min per day. […] On the 5th day, the remaining mice were randomly divided into two groups: Saline (3 males and 2 females) and 2 mg kg^−1 mGpTx1‐SA (3 males and 3 females). All groups were administered intraperitoneally and allowed 20 minutes for the drug to take effect before behavioral tests were conducted. The total motor time of the animals during 300 s was recorded for analysis.

[2] = tested on: C57BL/6 mice; assay: Open field test; assay type: in vivo, mouse; details: 2 mg kg-1 i.p.; 2 min; vs saline; n = 4, p = 0.2000
Method: Open Field Test: The C57BL/6 mice (weight 18–20 g, 6–8 weeks, both sex) were randomly assigned to one of two groups: Saline (2 males and 2 females) and 2 mg kg^−1 mGpTx1‐SA (2 males and 2 females). All mice received intraperitoneal administration of the respective substances and were allowed 20 min for the drugs to take effect. Following drug administration, the mice were individually placed in square transparent chambers (50 × 50 cm). They were allowed to explore freely under normal light. The movements and trajectories of the mice were recorded using video and computer systems over a 2‐minute period for subsequent analysis.

## CC[C@H](C)[C@@H]1NC(=O)[C@@H]2CSSC[C@@H]3NC(=O)[C@H](C(C)C)NC(=O)[C@H](CC(C)C)NC(=O)[C@H](CC(N)=O)NC(=O)[C@@H]4CCCN4C(=O)[C@H](CCCNC(=N)N)NC(=O)[C@H](CSSC[C@H](NC(=O)[C@@H](N)CC(=O)O)C(=O)N[C@@H](CC(C)C)C(=O)NCC(=O)N[C@@H](C)C(=O)N[C@@H](Cc4ccccc4)C(=O)N[C@@H](CCCNC(=N)N)C(=O)N[C@@H](CCCCN)C(=O)N2)NC(=O)[C@H](CSSC[C@@H](C(=O)N[C@@H](CCCCN)C(=O)N[C@@H](Cc2ccc(O)cc2)C(=O)N[C@H](C(=O)N[C@@H](Cc2ccccc2)C(N)=O)C(C)C)NC(=O)[C@H](Cc2c[nH]c4ccccc24)NC(=O)[C@H](CCCNC(=N)N)NC(=O)[C@H](Cc2c[nH]cn2)NC(=O)[C@H](C)NC(=O)[C@H](CO)NC(=O)[C@H](CO)NC3=O)NC(=O)[C@H](CCCCN)NC(=O)[C@H](CC(=O)O)NC(=O)[C@H](CC(N)=O)NC(=O)[C@H](CC(=O)O)NC(=O)[C@@H]2CCCN2C1=O [mGpTx1-SA] (H-DCLGAFRKCIPDNDKCCRPNLVCSSAHRWCKYVF-NH2; disulfide 2-17, 9-23, 16-30)
[1]
  balance time of mice on the rotarod test: did not affect
[2]
  exploratory and locomotor behavior, open-field test: did not influence significantly
